Experimental data: ChEMBL document CHEMBL1201862, “PubChem BioAssay data set” (2004)
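Dose response: 5 concentrations. Exposure: 48 h. Format: 96-well plates. Endpoint: linear interpolation; highest concentration if not reached. Abbreviation: GI50, concentration required for 50% inhibition of growth.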 Calls of active or inactive are those of the source. Cut-off read from the data, not from the text of the source: active = GI50 up to about 1.1 µM and inactive = higher.

Columns and labels:
Test in all cases: growth of human tumour cells (NCI), 48 h
HL-60 = tested on: HL-60
ACHN = tested on: ACHN
NCI-H23 = tested on: NCI-H23
HCT-15 = tested on: HCT-15
NCI-H460 = tested on: NCI-H460
UO-31 = tested on: UO-31
UACC-257 = tested on: UACC-257
SK-MEL-28 = tested on: SK-MEL-28
EKVX = tested on: EKVX
HCC 2998 = tested on: HCC 2998
SK-MEL-5 = tested on: SK-MEL-5
M14 = tested on: M14
786-0 = tested on: 786-0
SF-268 = tested on: SF-268
SR = tested on: SR

| Structure (SMILES) | GI50 (HL-60) | GI50 (ACHN) | GI50 (NCI-H23) | GI50 (HCT-15) [µM] | GI50 (NCI-H460) | GI50 (UO-31) | GI50 (UACC-257) | GI50 (SK-MEL-28) | GI50 (EKVX) | GI50 (HCC 2998) | GI50 (SK-MEL-5) | GI50 (M14) | GI50 (786-0) | GI50 (SF-268) | GI50 (SR) |
| --- | --- | --- | --- | --- | --- | --- | --- | --- | --- | --- | --- | --- | --- | --- | --- |
| CCCCOC(=O)C1C(c2ccc(Cl)cc2)NC(c2ccc(Cl)cc2)C(C(=O)OCCCC)S1(=O)=O (stereo not given) | 8.83 µM (inactive) | > 100 µM (inactive) | > 100 µM (inactive) | > 100 | > 100 µM (inactive) | > 100 µM (inactive) | > 100 µM (inactive) | > 100 µM (inactive) | > 100 µM (inactive) | > 100 µM (inactive) | > 100 µM (inactive) | > 100 µM (inactive) | > 100 µM (inactive) | > 100 µM (inactive) | > 100 µM (inactive) |
| COc1ccc(N2C(=O)C3CC(c4ccc(C)cc4)c4c([nH]c5ccccc45)C3C2=O)cc1 (stereo not given) | 14.5 µM (inactive) | 21.6 µM (inactive) | > 45.8 µM (inactive) | 8.61 | 4.9 µM (inactive) | > 47.2 µM (inactive) | > 100 µM (inactive) | > 49.9 µM (inactive) | > 63.5 µM (inactive) | 52.7 µM (inactive) | 63.1 µM (inactive) | 33.8 µM (inactive) | 12.2 µM (inactive) | 19.5 µM (inactive) | 2.02 µM (inactive) |
| NNC(=O)N/N=C1\C(=O)N(c2ccc(Cl)c(Cl)c2)C(=O)C(=O)C1c1nc2ccccc2s1 (stereo not given) | > 100 µM (inactive) | > 100 µM (inactive) | > 100 µM (inactive) | > 100 | > 100 µM (inactive) | > 100 µM (inactive) | > 100 µM (inactive) | > 100 µM (inactive) | > 100 µM (inactive) | > 100 µM (inactive) | > 100 µM (inactive) | > 100 µM (inactive) | > 100 µM (inactive) | > 100 µM (inactive) | 89.9 µM (inactive) |
| COc1nc2c(c(O)c(C)c(=O)n2OC2OC(COC(C)=O)C(OC(C)=O)C(OC(C)=O)C2OC(C)=O)c(=O)n1C (stereo not given) | – | > 100 µM (inactive) | > 100 µM (inactive) | > 100 | > 100 µM (inactive) | > 100 µM (inactive) | – | > 100 µM (inactive) | > 100 µM (inactive) | > 100 µM (inactive) | > 100 µM (inactive) | > 100 µM (inactive) | > 100 µM (inactive) | > 100 µM (inactive) | > 100 µM (inactive) |
| Cc1ccccc1N(CCC#N)C1=NN(C(=O)CC(=O)Nc2ccccc2)C(c2ccccc2)C1 (stereo not given) | > 100 µM (inactive) | > 100 µM (inactive) | > 100 µM (inactive) | > 100 | > 100 µM (inactive) | > 100 µM (inactive) | > 100 µM (inactive) | > 100 µM (inactive) | > 100 µM (inactive) | > 100 µM (inactive) | > 100 µM (inactive) | > 100 µM (inactive) | > 100 µM (inactive) | > 100 µM (inactive) | 44.1 µM (inactive) |
| O=C(O)/C(Cl)=C(Cl)/C=N/NC(=O)c1cc2ccccc2cc1O | 5.42 µM (inactive) | 18 µM (inactive) | 8.57 µM (inactive) | 19.4 | 21 µM (inactive) | 2.48 µM (inactive) | 15.5 µM (inactive) | 29.8 µM (inactive) | 30.2 µM (inactive) | – | 9.82 µM (inactive) | 14.5 µM (inactive) | 19.1 µM (inactive) | 7.66 µM (inactive) | 9.55 µM (inactive) |
| COc1cc(/C=N/N=C(\N)NO)ccc1O | – | 44.1 µM (inactive) | 57.1 µM (inactive) | 50 | 38.8 µM (inactive) | 41.4 µM (inactive) | > 100 µM (inactive) | 26 µM (inactive) | 71.9 µM (inactive) | – | 53 µM (inactive) | – | > 10 µM (inactive) | 56 µM (inactive) | – |
| C=CCCCN1CCCCC1=S | > 100 µM (inactive) | > 100 µM (inactive) | > 100 µM (inactive) | > 100 | > 100 µM (inactive) | > 100 µM (inactive) | > 100 µM (inactive) | > 100 µM (inactive) | > 100 µM (inactive) | > 100 µM (inactive) | > 100 µM (inactive) | > 100 µM (inactive) | > 100 µM (inactive) | – | > 100 µM (inactive) |
| Cc1ccc(S(=O)(=O)C(CC(NC=O)S(=O)(=O)c2ccc(C)cc2)NC=O)cc1 (stereo not given) | > 100 µM (inactive) | – | > 100 µM (inactive) | > 100 | > 100 µM (inactive) | > 100 µM (inactive) | > 100 µM (inactive) | – | > 100 µM (inactive) | > 100 µM (inactive) | > 100 µM (inactive) | > 100 µM (inactive) | > 100 µM (inactive) | > 100 µM (inactive) | > 100 µM (inactive) |
